Common to all, as to assay: growth of human tumour cells (NCI), 48 h
The test system of assay [1] is SF-295 CNS.
The subject of assay [2] is NCI-H226 lung.
Assay [3] concerns OVCAR-3 ovarian.
Assay [4] has as its system MDA-MB-231 breast.
Assay [5] concerns NCI-H460 lung.
Assay [6] has as its system HS 578T breast.
The test system of assay [7] is CAKI-1 renal.
Assay [8] has as its system COLO 205 colon.

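Values below derive from 48-hour exposures of cells grown in 96-well plates, with endpoints linearly interpolated between the two concentrations bracketing the appropriate inhibition level. GI50 = concentration required for 50% inhibition of growth. TGI is the concentration that stops growth completely.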 Bounds are passed on as bounds.

`CN1CCN(Cn2nc(-c3cc(F)c(Cl)cc3Cl)oc2=S)CC1`: the GI50 in assay [1] is 42.4 µM; in assay [2] it was 34.4 µM; in assay [3] it was 37.4 µM; in assay [4], 17.8 µM; in assay [5], 41.2 µM; in assay [6] it was 28.5 µM. For the same compound, the values for the GI50 in assay [7] and in assay [8] were 34.2 µM and 23.6 µM, respectively. The TGI is more than 100 µM in assay [1]; more than 100 µM in assay [2]; more than 100 µM in assay [3]; 62.5 µM in assay [4]; more than 100 µM in assay [5]; 86.8 µM in assay [6]. For the same compound, the TGI in assay [7] is more than 100 µM; in assay [8], 51.6 µM.
